Results published in patent publication US20260184725A1, “CYCLIC 2-AMINOPYRIMIDINE COMPOUND AND PHARMACEUTICAL COMPOSITION AND USE THEREOF” (SHANGHAI INSTITUTE OF ORGANIC CHEMISTRY, CHINESE ACADEMY OF …, priority 2023, published 2026).

Tests used:
Assay type in all cases: biochemical
EGFR^19del/T790M/C797S = target: T1, EGFR^19del/T790M/C797S (Homo sapiens, UniProt P00533, T790M/C797S, form not given); assay: ELISA kinase activity inhibition, EGFR 19del/T790M/C797S; settings: ATP 5 μM, read-out: The average IC50 value (nM) for inhibiting the activity of different tyrosine kinases, EGFR^19del/T790M/C797S
T1 construct: fused on or other part: Probably a GST tag on the cytoplasmic fragment, as in the vendor's product
T1 sequence (P00533 with tags, fused parts or gaps DEL746-750/T790M/C797S, form open): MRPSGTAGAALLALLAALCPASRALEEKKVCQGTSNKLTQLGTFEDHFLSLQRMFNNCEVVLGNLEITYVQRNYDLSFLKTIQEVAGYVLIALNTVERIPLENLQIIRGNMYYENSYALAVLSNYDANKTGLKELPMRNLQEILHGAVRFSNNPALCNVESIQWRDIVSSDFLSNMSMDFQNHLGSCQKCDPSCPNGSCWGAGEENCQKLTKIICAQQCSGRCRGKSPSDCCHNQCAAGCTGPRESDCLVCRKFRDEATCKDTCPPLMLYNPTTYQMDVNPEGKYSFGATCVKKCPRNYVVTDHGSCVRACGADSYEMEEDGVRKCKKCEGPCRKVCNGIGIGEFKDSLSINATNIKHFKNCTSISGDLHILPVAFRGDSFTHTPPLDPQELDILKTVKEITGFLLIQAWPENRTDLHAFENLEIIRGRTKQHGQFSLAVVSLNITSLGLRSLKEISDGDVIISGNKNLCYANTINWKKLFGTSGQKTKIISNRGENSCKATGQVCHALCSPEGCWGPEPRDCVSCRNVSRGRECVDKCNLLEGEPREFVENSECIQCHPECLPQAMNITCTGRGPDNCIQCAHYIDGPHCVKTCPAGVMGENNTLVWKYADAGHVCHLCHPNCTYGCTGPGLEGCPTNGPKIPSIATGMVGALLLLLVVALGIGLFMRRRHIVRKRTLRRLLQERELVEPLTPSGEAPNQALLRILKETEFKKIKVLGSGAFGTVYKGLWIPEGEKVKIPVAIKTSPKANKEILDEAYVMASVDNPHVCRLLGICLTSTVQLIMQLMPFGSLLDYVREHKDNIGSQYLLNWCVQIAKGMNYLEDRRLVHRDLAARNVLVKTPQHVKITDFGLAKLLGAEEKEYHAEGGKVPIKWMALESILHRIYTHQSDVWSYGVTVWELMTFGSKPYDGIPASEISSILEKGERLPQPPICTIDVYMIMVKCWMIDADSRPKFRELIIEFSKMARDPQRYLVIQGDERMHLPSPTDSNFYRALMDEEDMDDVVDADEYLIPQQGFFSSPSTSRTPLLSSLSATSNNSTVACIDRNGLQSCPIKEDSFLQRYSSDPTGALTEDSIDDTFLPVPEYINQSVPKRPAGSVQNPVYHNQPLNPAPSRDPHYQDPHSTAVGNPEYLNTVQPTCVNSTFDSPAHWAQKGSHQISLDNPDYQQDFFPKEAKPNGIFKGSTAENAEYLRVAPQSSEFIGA
Method: (§1) EGFR (WT) is a wild-type epidermal growth factor receptor.
(§2) Enzyme-Linked Immunosorbent Assay (ELISA) was used to detect the inhibitory effect of compounds on kinase activity.
(§3) The main experimental steps were as follows: Enzyme reaction substrate Poly (Glu, Tyr)4:1 was diluted with potassium free PBS (10 mM sodium phosphate buffer, 150 mM NaCl, pH 7.2-7.4) to 20 μg/mL, and reacted at 37° C. for 12 hours to 16 hours to coat the enzyme-linked immunosorbent assay plate. ATP solution (final concentration 5 μM) diluted with reaction buffer (50 mM HEPES pH 7.4, 50 mM MgCl2, 0.5 mM MnCl2, 0.2 mM Na3VO4, 1 mM DTT) was added to each well, followed by the test compound or solvent control, then the kinase reaction was initiated and the plate was shaken at 37° C. for 1 hour. The plate was washed three times with T-PBS, then added antibody PY99. The plate was shaken at 37° C. for 0.5 hours. After washing the plate with T-PBS, added horseradish peroxidase-labeled IgG and shaken at 37° C. for 0.5 hours. After washing the plate again, added 2 mg/mL of OPD colorimetric solution and incubated at 25° C. in the dark for 1 minutes to 10 minutes. […] The IC50 values were obtained from the inhibition curve analysis.

EGFR^WT = target: T2, EGFR^WT (Homo sapiens, UniProt P00533); assay: ELISA kinase activity inhibition, wild-type EGFR; settings: ATP 5 μM, read-out: The average IC50 value (nM) for inhibiting the activity of different tyrosine kinases, EGFR^WT
T2 construct: purchased Eurofins
T2 sequence (P00533 25-1210): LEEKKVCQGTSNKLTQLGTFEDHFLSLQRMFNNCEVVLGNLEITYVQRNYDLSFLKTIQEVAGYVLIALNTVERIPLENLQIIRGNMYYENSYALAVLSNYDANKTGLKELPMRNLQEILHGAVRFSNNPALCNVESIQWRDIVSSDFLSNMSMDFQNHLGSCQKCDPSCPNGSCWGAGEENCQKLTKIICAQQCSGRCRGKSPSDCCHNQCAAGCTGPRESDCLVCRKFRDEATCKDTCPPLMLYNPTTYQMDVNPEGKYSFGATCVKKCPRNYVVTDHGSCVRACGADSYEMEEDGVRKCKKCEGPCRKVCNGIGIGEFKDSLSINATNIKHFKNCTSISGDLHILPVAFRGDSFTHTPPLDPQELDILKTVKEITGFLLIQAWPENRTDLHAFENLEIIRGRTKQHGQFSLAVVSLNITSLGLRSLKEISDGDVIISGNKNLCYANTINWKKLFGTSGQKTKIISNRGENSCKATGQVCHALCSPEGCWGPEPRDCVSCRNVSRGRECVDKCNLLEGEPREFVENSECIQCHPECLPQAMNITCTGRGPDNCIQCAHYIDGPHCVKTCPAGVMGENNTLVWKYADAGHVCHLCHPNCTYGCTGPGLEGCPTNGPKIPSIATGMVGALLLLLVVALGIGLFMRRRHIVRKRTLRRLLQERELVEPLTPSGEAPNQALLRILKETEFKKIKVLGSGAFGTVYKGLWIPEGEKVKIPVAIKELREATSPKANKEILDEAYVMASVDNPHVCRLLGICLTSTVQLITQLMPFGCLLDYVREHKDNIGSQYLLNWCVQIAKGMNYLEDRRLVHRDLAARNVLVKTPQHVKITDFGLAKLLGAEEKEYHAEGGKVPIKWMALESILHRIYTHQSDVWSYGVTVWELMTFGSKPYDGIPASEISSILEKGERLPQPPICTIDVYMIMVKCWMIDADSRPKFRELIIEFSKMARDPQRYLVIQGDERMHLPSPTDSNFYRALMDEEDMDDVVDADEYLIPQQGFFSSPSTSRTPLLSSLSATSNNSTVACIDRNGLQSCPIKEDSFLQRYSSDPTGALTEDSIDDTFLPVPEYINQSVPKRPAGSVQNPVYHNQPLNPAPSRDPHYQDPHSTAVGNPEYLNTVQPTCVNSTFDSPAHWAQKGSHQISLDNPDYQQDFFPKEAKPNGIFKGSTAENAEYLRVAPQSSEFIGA
Method: as §1, §2, §3

EGFR^L858R/T790M/C797S = EGFR^L858R/T790M/C797S (Homo sapiens, UniProt P00533, C797S/L858R/T790M); assay: ELISA kinase activity inhibition, EGFR L858R/T790M/C797S; settings: ATP 5 μM, read-out: The average IC50 value (nM) for inhibiting the activity of different tyrosine kinases, EGFR^L858R/T790M/C797S
EGFR^L858R/T790M/C797S, sequence (P00533 25-1210 T790M/C797S/L858R): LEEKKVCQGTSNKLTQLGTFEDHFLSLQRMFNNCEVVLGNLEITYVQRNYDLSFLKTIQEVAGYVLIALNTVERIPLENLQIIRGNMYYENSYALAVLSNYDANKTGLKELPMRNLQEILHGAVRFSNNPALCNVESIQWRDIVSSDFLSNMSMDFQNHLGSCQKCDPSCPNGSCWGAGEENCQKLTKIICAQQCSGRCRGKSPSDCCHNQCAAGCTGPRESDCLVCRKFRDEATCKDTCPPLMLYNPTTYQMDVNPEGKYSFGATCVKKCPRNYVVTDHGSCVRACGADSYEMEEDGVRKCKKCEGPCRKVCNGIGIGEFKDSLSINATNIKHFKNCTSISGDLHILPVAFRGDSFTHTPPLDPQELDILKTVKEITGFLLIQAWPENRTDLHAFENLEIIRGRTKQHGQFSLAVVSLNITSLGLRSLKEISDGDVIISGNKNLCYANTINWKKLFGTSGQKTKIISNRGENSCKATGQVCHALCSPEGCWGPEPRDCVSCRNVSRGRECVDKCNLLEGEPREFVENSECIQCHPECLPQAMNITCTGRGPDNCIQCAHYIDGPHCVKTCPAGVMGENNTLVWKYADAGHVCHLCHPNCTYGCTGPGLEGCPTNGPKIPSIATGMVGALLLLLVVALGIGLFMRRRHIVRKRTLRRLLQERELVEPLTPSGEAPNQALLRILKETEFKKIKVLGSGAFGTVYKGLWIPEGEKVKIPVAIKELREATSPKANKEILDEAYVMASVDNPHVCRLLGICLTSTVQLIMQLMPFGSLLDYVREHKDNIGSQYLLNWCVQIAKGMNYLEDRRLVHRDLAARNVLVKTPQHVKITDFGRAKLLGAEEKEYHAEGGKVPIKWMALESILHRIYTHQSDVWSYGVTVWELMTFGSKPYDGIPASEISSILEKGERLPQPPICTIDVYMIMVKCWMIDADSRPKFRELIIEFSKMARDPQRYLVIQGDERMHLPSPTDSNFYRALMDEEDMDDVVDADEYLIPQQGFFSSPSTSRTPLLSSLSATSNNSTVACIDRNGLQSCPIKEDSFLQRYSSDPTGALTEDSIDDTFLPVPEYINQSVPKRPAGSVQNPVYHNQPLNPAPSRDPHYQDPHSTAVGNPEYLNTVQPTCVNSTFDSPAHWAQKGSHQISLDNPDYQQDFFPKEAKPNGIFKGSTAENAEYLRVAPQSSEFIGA
Method: as §2, §3

Row | IC50 (EGFR^19del/T790M/C797S) | IC50 (EGFR^WT) | IC50 (EGFR^L858R/T790M/C797S) | Compound
1 | 8.2 nM | > 1000 nM |  | CCS(=O)(=O)n1cc2c3ccc(cc31)OCCCn1ccc(n1)-c1cc(c(C(C)C)cc1N1CCOCC1)Nc1nccc-2n1 [FBH-3-48, (Z)-1^1-(ethylsulfonyl)-4^6-isopropyl-4^4-morpholino-1^1H,5^1H-9-oxa-3-aza-1(3,6)-indole-2(4,2)-pyrimidine-5(4,1)-pyrazole-4(1,3)-benzenacyclononaphane]
2 | 33 nM | > 1000 nM |  | CCS(=O)(=O)n1cc2c3ccc(cc31)OCCCn1ccc(n1)-c1cc(c(C3CC3)cc1N1CCOCC1)Nc1nccc-2n1 [FBH-3-66, (Z)-4^6-cyclopropyl-1^1-(ethylsulfonyl)-4^4-morpholino-1^1H,5^1H-9-oxa-3-aza-1(3,6)-indole-2(4,2)-pyrimidine-5(4,1)-pyrazol-4(1,3)-benzenacyclononaphane]
3 | 267 nM | > 1000 nM |  | CCS(=O)(=O)n1cc2c3ccc(cc31)OCCCn1ccc(n1)-c1cc(c(OC(C)C)cc1N1CCOCC1)Nc1nccc-2n1 [FBH-3-84, (Z)-1^1-(ethylsulfonyl)-4^6-isopropoxy-4^4-morpholinyl-1^1H,5^1H-9-oxa-3-aza-1(3,6)-indole-2(4,2)-pyrimidin-5(4,1)-pyrazol-4(1,3)-benzocyclononaphthalene]
4 |  | > 1000 nM | 159 nM | CCS(=O)(=O)n1cc2c3ccc(cc31)OCCCn1ccc(n1)-c1cc(c(C(F)(F)F)cc1N1CCOCC1)Nc1nccc-2n1 [FBH-3-92, (Z)-1^1-(ethylsulfonyl)-4^4-morpholinyl-4^6-(trifluoromethyl)-1^1H,5^1H-9-oxa-3-aza-1(3,6)-indole-2(4,2)-pyrimidine-5(4,1)-pyrazole-4(1,3)-benzenacyclononaphane]
5 |  | > 1000 nM | 147 nM | CCS(=O)(=O)n1cc2c3ccc(cc31)OCCCn1ccc(n1)-c1cc(c(OC)cc1N1CCOCC1)Nc1nccc-2n1 [FBH-4-6, (E)-1^1-(ethylsulfonyl)-4^6-methoxy-4^4-morpholinyl-1^1H,5^1H-9-oxa-3-aza-1(3,6)-indole-2(4,2)-pyrimidine-5(3,1)-pyrazole-4(1,3)-benzocyclononaphthalene]
6 |  | 189 nM | 98.5 nM | CCS(=O)(=O)n1cc2c3ccc(cc31)OCCCn1ccc(n1)-c1cc(c(OC3CC3)cc1N1CCOCC1)Nc1nccc-2n1 [FBH-4-24, (Z)-4^6-cyclopropoxy-1^1-(ethylsulfonyl)-4^4-morpholinyl-1^1H,5^1H-9-oxa-3-aza-1(3,6)-indole-2(4,2)-pyrimidine-5(4,1)-pyrazole-4(1,3)-benzocyclononaphthalene]
7 |  | > 1000 nM | 135 nM | CCS(=O)(=O)n1cc2c3ccc(cc31)OCCCn1ccc(n1)-c1cc(c(OC(F)(F)F)cc1N1CCOCC1)Nc1nccc-2n1 [FBH-4-48, (Z)-1^1-(ethylsulfonyl)-4^4-morpholinyl-4^6-(trifluoromethoxy)-1^1H,5^1H-9-oxa-3-aza-1(3,6)-indole-2(4,2)-pyrimidine-5(4,1)-pyrazole-4(1,3)-benzocyclononaphthalene]
8 | 129 nM | > 1000 nM | 167 nM | CCS(=O)(=O)n1cc2c3ccc(cc31)OCCCn1cc(cn1)-c1cc(c(C)cc1N1CCOCC1)Nc1ncc(Cl)c-2n1 [HC916, 2^5-chloro-1^1-ethylsulfonyl-4^6-methyl-4^4-morpholino-1^1H,5^1H-9-oxa-3-aza-1(3,6)-indole-2(4,2)-pyrimidin-5(4,1)-pyrazol-4(1,3)-benzenacyclononaphane]
9 | 6.8 nM | > 1000 nM |  | Cc1cc(N2CCOCC2)c2cc1Nc1ncc(Cl)c(n1)-c1cn(C)c3cc(ccc13)OCCCn1cc-2cn1 [HC8991, 2^5-Chloro-1^1,4^6-dimethyl-4^4-morpholino-1^1H,5^1H-9-oxa-3-aza-1(3,6)-Indole-2(4,2)-Pyrimidin-5(4,1)-Pyrazolol-4(1,3)-benzenacyclononaphane]
10 | 82.3 nM | > 1000 nM | 183 nM | CCS(=O)(=O)n1cc2c3ccc(cc31)OCCCn1cc(cn1)-c1cc(cc(C3CCCC3)c1N1CCOCC1)Nc1ncc(Cl)c-2n1 [HC9001, 2^5-chloro-4^5-cyclopentyl-1^1-ethylsulfonyl-4^4-morpholino-1^1H,5^1H-9-oxa-3-aza-1(3,6)-indole-2(4,2)-pyrimidin-5(4,1)-pyrazol-4(1,3)-benzenacyclononaphane]
11 | 24.7 nM | > 1000 nM | 59 nM | C=C(C)c1cc2cc(c1N1CCOCC1)-c1cnn(c1)CCCOc1ccc3c(cn(S(=O)(=O)CC)c3c1)-c1nc(ncc1Cl)N2 [HC9002, 2^5-Chloro-1^1-ethylsulfonyl-4^4-morpholino-4^5-propenyl-1^1H,5^1H-9-oxa-3-aza-1(3,6)-indole-2(4,2)-pyrimidine-5(4,1)-pyrazole-4(1,3)-benzenacyclononaphane]
12 | 29 nM | > 1000 nM | 69.7 nM | CCS(=O)(=O)n1cc2c3ccc(cc31)OCCCn1cc(cn1)-c1cc(cc(C=C(C)C)c1N1CCOCC1)Nc1ncc(Cl)c-2n1 [HC9003, 2^5-Chloro-1^1-ethylsulfonyl-4^4-morpholino-4^5-2-methylpropan-1-en-1-yl-1^1H,5^1H-9-oxa-3-aza-1(3,6)-indole-2(4,2)-pyrimidine-5(4,1)-pyrazole-4(1,3)-benzenacyclononaphane]
13 | 195 nM | > 1000 nM | 384 nM | CCS(=O)(=O)n1cc2c3ccc(cc31)OCCCn1cc(cn1)-c1cc(cc(/C=C/C(C)(C)C)c1N1CCOCC1)Nc1ncc(Cl)c-2n1 [HC9004]
14 | 30.5 nM | > 1000 nM | 30.5 nM | CCS(=O)(=O)n1cc2c3ccc(cc31)OCC(C)Cn1cc(cn1)-c1cc(ccc1N1CCOCC1)Nc1ncc(Cl)c-2n1 (centres unmarked) [HC9281, 2^5-chloro-1^1-ethylsulfonyl-7-methyl-4^4-morpholino-1^1H, 5^1H-9-oxa-3-aza-1(3,6)-indole-2(4,2)-pyrimidine-5(4,1)-pyrazole-4(1,3)-benzenacyclononaphane]
15 | 45.8 nM | > 1000 nM | 45.8 nM | CCS(=O)(=O)n1cc2c3ccc(cc31)OCC1(CC1)Cn1cc(cn1)-c1cc(ccc1N1CCOCC1)Nc1ncc(Cl)c-2n1 [HC9282, (Z)-5′-Chloro-1′(Ethylsulfonyl)-4′-morpholino spiro [Cyclopropane-1,7′-9-oxa-3-aza-1(3,6)-indole-2(4,2)-pyrimidine-5(4,1)-pyrazolol-4(1,3)-benzenacyclononaphane]]
16 |  | 146 nM | 57.8 nM | CCS(=O)(=O)n1cc2c3ccc(cc31)OCCCn1cc(cn1)-c1cc(c(OC)cc1N1CCOC(C)C1)Nc1nccc-2n1 (centres unmarked) [WQX-2-43, (Z)-1^1-(Ethylsulfonyl)-4^6-methoxy-4^4-(2-methylmorpholinyl)-1^1H,5^1H-9-oxa-3-aza-1(3,6)-indol-2(4,2)-pyrimidin-5(4,1)-pyrazol-4(1,3)-benzocyclononane]
17 |  | 255 nM | 102 nM | CCS(=O)(=O)n1cc2c3ccc(cc31)OCCCn1cc(cn1)-c1cc(c(OC)cc1N1CCOCC1)Nc1ncc(F)c-2n1 [WQX-2-79, (Z)-1^1-(ethylsulfonyl)-2^5-fluoro-4^6-methoxy-4^4-morpholinyl-1^1H,5^1H-9-oxa-3-aza-1(3,6)-indole-2(4,2)-pyrimidin-5(4,1)-pyrazol-4(1,3)-benzenacyclononaphane]
